Source: patent US20250144094A1 (Erasca, Inc., priority 2021, published 2025)

Biological target: Recombinant human ULK1 (1-649) (Homo sapiens (Human), UniProt O75385)
Assay: ULK1 ADP Glo kinase activity assay (MBP substrate)
Conditions: 25° C., 40 minutes, read-out: ULK1 biochemical IC50
Experimental: Recombinant human ULK1 (1-649) protein expressed in Sf9 insect cells was obtained from SignalChem (Vancouver, BC), catalog #U01-11G. Active kinase was purified via N-terminal GST tag to >85% purity.
ADP GLO Kinase Assay Reagents were obtained from Promega Corp (Madison, WI), catalog #V9104.
MBP (myelin basic protein) substrate, bovine, purified, was obtained from Sigma (St. Louis, MO), catalog #M1891.
ULK1 inhibitor potency was determined using the luminescent ADP Glo Kinase Assay (Promega), a universal ADP detection system that measures kinase activity by quantifying the amount of ADP produced during a kinase reaction. ULK1 kinase reactions are performed in a standard 96-well microplate (20 uL reaction volume) at 25° C. for 40 minutes in the presence or absence of the test compound (12-point dilution series starting at 10 uM). Addition of MBP substrate and ATP initiates the kinase reaction.
The standard ADP Glo assay is performed in two steps. In step one, following the kinase reaction, an equal volume of ADP-Glo™ Reagent (20 uL) is added to terminate the kinase reaction and deplete the remaining ATP. In the second step, the Kinase Detection Reagent (10 uL) is added to simultaneously convert ADP to ATP and allow the newly synthesized ATP to be measured using a luciferase/luciferin reaction. Step two of the ADP Glo assay is performed in a white 384-well plate (20 uL final volume). Thirty minutes after the addition of the Detection reagent, light generated from the luciferase reaction is measured (1 second exposure) using a microplate compatible luminometer (CLARIOstar, BMG Labtech).
Inhibition of ULK1 kinase activity is determined for each test compound by comparison to DMSO only control wells. Inhibitor IC50 was calculated by plotting the change in luminescence after 30 minutes (response) versus inhibitor concentration (in log molar) then applying the four-parameter variable slope curve fit (GraphPad Prism). Inhibition of ULK1 in biochemical assay is found in Table 3.

Sequence of Recombinant human ULK1 (1-649) (O75385 1-649): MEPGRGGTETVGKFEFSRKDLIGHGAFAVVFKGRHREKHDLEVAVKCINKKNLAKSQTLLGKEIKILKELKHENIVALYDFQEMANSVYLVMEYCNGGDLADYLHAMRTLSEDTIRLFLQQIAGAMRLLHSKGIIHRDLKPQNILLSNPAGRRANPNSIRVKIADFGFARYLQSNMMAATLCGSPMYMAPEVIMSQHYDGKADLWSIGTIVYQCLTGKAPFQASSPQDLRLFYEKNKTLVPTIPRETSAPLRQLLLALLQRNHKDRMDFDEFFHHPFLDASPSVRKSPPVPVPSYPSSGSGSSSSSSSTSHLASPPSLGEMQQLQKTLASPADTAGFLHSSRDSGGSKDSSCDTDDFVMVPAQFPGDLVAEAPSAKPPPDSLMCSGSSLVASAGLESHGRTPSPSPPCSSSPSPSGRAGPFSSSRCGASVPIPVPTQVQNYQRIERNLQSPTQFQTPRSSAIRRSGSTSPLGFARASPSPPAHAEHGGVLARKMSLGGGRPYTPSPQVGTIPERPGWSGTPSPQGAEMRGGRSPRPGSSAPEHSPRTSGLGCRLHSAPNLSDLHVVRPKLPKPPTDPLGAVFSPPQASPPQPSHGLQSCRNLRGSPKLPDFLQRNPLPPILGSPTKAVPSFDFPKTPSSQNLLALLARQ

IC50 [nM] | SMILES
≤ 10 | CN1CCc2sc(-c3nc(Nc4cc5c(cc4Cl)CNCC5)ncc3C(F)(F)F)cc2C1=O [Example 21, 2-(2-((7-Chloro-1,2,3,4-tetrahydroisoquinolin-6-yl)amino)-5-(trifluoromethyl)pyrimidin-4-yl)-5-methyl-6,7-dihydrothieno[3,2-c]pyridin-4(5H)-one]
≤ 10 | CCN1CCc2sc(-c3nc(Nc4cc5c(cc4Cl)CNCC5)ncc3C(F)(F)F)cc2C1=O [Example 22, 2-(2-((7-chloro-1,2,3,4-tetrahydroisoquinolin-6-yl)amino)-5-(trifluoromethyl)pyrimidin-4-yl)-5-ethyl-6,7-dihydrothieno[3,2-c]pyridin-4(5H)-one]
≤ 10 | O=c1[nH]ccc2sc(-c3nc(Nc4cc5c(cc4Cl)CNCC5)ncc3C(F)(F)F)cc12 [Example 23, 2-(2-((7-Chloro-1,2,3,4-tetrahydroisoquinolin-6-yl)amino)-5-(trifluoromethyl)pyrimidin-4-yl)thieno[3,2-c]pyridin-4(5H)-one]
10 to 50 | O=c1[nH]ncc2sc(-c3nc(Nc4cc5c(cc4Cl)CNCC5)ncc3C(F)(F)F)cc12 [Example 24, 2-(2-((7-Chloro-1,2,3,4-tetrahydroisoquinolin-6-yl)amino)-5-(trifluoromethyl)pyrimidin-4-yl)thieno[2,3-d]pyridazin-4(5H)-one]
10 to 50 | N#Cc1csc(-c2nc(Nc3cc4c(cc3Cl)CNCC4)ncc2C(F)(F)F)c1 [Example 25, 5-(2-((7-Chloro-1,2,3,4-tetrahydroisoquinolin-6-yl)amino)-5-(trifluoromethyl)pyrimidin-4-yl)thiophene-3-carbonitrile]
> 500 | NC(=O)c1csc(-c2nc(Nc3cc4c(cc3Cl)CNCC4)ncc2C(N)=O)c1 [Example 26, 4-(4-Carbamoylthiophen-2-yl)-2-((7-chloro-1,2,3,4-tetrahydroisoquinolin-6-yl)amino)pyrimidine-5-carboxamide]
≤ 10 | NS(=O)(=O)c1csc(-c2nc(Nc3cc4c(cc3Cl)CNCC4)ncc2C(F)(F)F)c1 [Example 27, 5-(2-((7-Chloro-1,2,3,4-tetrahydroisoquinolin-6-yl)amino)-5-(trifluoromethyl)pyrimidin-4-yl)thiophene-3-sulfonamide]
≤ 10 | O=C1NCCCc2sc(-c3nc(Nc4cc5c(cc4Cl)CNCC5)ncc3C(F)(F)F)cc21 [Example 28, 2-(2-((7-Chloro-1,2,3,4-tetrahydroisoquinolin-6-yl)amino)-5-(trifluoromethyl)pyrimidin-4-yl)-5,6,7,8-tetrahydro-4H-thieno[3,2-c]azepin-4-one]
≤ 10 | O=C1NCCc2sc(-c3nc(Nc4cc5c(cc4C4CC4)CNCC5)ncc3C(F)(F)F)cc21 [Example 29, 2-(2-((7-Cyclopropyl-1,2,3,4-tetrahydroisoquinolin-6-yl)amino)-5-(trifluoromethyl)pyrimidin-4-yl)-6,7-dihydrothieno[3,2-c]pyridin-4(5H)-one]
≤ 10 | Cn1ccc2sc(-c3nc(Nc4cc5c(cc4Cl)CNCC5)ncc3C(F)(F)F)cc2c1=O [Example 30, 2-(2-((7-Chloro-1,2,3,4-tetrahydroisoquinolin-6-yl)amino)-5-(trifluoromethyl)pyrimidin-4-yl)-5-methylthieno[3,2-c]pyridin-4(5H)-one]
≤ 10 | Cn1ncc2sc(-c3nc(Nc4cc5c(cc4Cl)CNCC5)ncc3C(F)(F)F)cc2c1=O [Example 31, 2-(2-((7-Chloro-1,2,3,4-tetrahydroisoquinolin-6-yl)amino)-5-(trifluoromethyl)pyrimidin-4-yl)-5-methylthieno[2,3-d]pyridazin-4(5H)-one]
≤ 10 | CS(=O)(=O)c1csc(-c2nc(Nc3cc4c(cc3Cl)CNCC4)ncc2C(F)(F)F)c1 [Example 32, 7-Chloro-N-(4-(4-(methylsulfonyl)thiophen-2-yl)-5-(trifluoromethyl)pyrimidin-2-yl)-1,2,3,4-tetrahydroisoquinolin-6-amine]
≤ 10 | O=C1NCCc2sc(-c3nc(Nc4cc5c(cc4Cl)CNC5)ncc3C(F)(F)F)cc21 [Example 33, 2-(2-((6-Chloroisoindolin-5-yl)amino)-5-(trifluoromethyl)pyrimidin-4-yl)-6,7-dihydrothieno[3,2-c]pyridin-4(5H)-one]
≤ 10 | CCc1cc2c(cc1Nc1ncc(C(F)(F)F)c(-c3cc4c(s3)CCNC4=O)n1)CCNC2 [Example 34, 2-(2-((7-ethyl-1,2,3,4-tetrahydroisoquinolin-6-yl)amino)-5-(trifluoromethyl)pyrimidin-4-yl)-6,7-dihydrothieno[3,2-c]pyridin-4(5H)-one]
≤ 10 | CSc1cc2c(cc1Nc1ncc(C(F)(F)F)c(-c3cc4c(s3)CCNC4=O)n1)CCNC2 [Example 35, 2-(2-((7-(Methylthio)-1,2,3,4-tetrahydroisoquinolin-6-yl)amino)-5-(trifluoromethyl)pyrimidin-4-yl)-6,7-dihydrothieno[3,2-c]pyridin-4(5H)-one]
≤ 10 | CN1CCN(c2ccc(Nc3ncc(C(F)(F)F)c(-c4cc5c(s4)CCNC5=O)n3)c(C3CC3)c2)CC1 [Example 36, 2-(2-((2-Cyclopropyl-4-(4-methylpiperazin-1-yl)phenyl)amino)-5-(trifluoromethyl)pyrimidin-4-yl)-6,7-dihydrothieno[3,2-c]pyridin-4(5H)-one]
≤ 10 | CCc1cc(N2CCN(C)CC2)ccc1Nc1ncc(C(F)(F)F)c(-c2cc(C(N)=O)cs2)n1 [Example 37, 5-(2-((2-Ethyl-4-(4-methylpiperazin-1-yl)phenyl)amino)-5-(trifluoromethyl)pyrimidin-4-yl)thiophene-3-carboxamide]
10 to 50 | CP(C)(=O)c1csc(-c2nc(Nc3cc4c(cc3Cl)CNCC4)ncc2C(F)(F)F)c1 [Example 38, (5-(2-((7-Chloro-1,2,3,4-tetrahydroisoquinolin-6-yl)amino)-5-(trifluoromethyl)pyrimidin-4-yl)thiophen-3-yl)dimethylphosphine oxide]
≤ 10 | CCc1cc(N2CCN(C)CC2)ccc1Nc1ncc(C(F)(F)F)c(-c2cc3c(s2)CCNC3=O)n1 [Example 39, 2-(2-((2-ethyl-4-(4-methylpiperazin-1-yl)phenyl)amino)-5-(trifluoromethyl)pyrimidin-4-yl)-6,7-dihydrothieno[3,2-c]pyridin-4(5H)-one]
≤ 10 | CC1(C)NC(=O)c2cc(-c3nc(Nc4cc5c(cc4Cl)CNCC5)ncc3C(F)(F)F)sc21 [Example 40, 2-(2-((7-chloro-1,2,3,4-tetrahydroisoquinolin-6-yl)amino)-5-(trifluoromethyl)pyrimidin-4-yl)-6,6-dimethyl-5,6-dihydro-4H-thieno[2,3-c]pyrrol-4-one]
10 to 50 | COCCN1CCCc2sc(-c3nc(Nc4cc5c(cc4Cl)CNCC5)ncc3C(F)(F)F)cc2C1=O [Example 41, 2-(2-((7-chloro-1,2,3,4-tetrahydroisoquinolin-6-yl)amino)-5-(trifluoromethyl)pyrimidin-4-yl)-5-(2-methoxyethyl)-5,6,7,8-tetrahydro-4H-thieno[3,2-c]azepin-4-one]
≤ 10 | CN1C(=O)c2cc(-c3nc(Nc4cc5c(cc4Cl)CNCC5)ncc3C(F)(F)F)sc2C1(C)C [Example 42, 2-(2-((7-chloro-1,2,3,4-tetrahydroisoquinolin-6-yl)amino)-5-(trifluoromethyl)pyrimidin-4-yl)-5,6,6-trimethyl-5,6-dihydro-4H-thieno[2,3-c]pyrrol-4-one]
≤ 10 | O=C1NCCc2sc(-c3nc(Nc4cc5c(cc4F)CNCC5)ncc3C(F)(F)F)cc21 [Example 43, 2-(2-((7-fluoro-1,2,3,4-tetrahydroisoquinolin-6-yl)amino)-5-(trifluoromethyl)pyrimidin-4-yl)-6,7-dihydrothieno[3,2-c]pyridin-4(5H)-one]
≤ 10 | CS(=O)(=O)N1CCc2sc(-c3nc(Nc4cc5c(cc4Cl)CNCC5)ncc3C(F)(F)F)cc2C1=O [Example 44, 2-(2-((7-chloro-1,2,3,4-tetrahydroisoquinolin-6-yl)amino)-5-(trifluoromethyl)pyrimidin-4-yl)-5-(methylsulfonyl)-6,7-dihydrothieno[3,2-c]pyridin-4(5H)-one]
≤ 10 | Cc1sc(-c2nc(Nc3cc4c(cc3Cl)CNCC4)ncc2C(F)(F)F)cc1C(N)=O [Example 45, 5-(2-((7-chloro-1,2,3,4-tetrahydroisoquinolin-6-yl)amino)-5-(trifluoromethyl)pyrimidin-4-yl)-2-methylthiophene-3-carboxamide]
≤ 10 | O=C1NCCCc2sc(-c3nc(Nc4cc5c(cc4Cl)CCNC5)ncc3C(F)(F)F)cc21 [Example 46, 2-(2-((6-chloro-1,2,3,4-tetrahydroisoquinolin-7-yl)amino)-5-(trifluoromethyl)pyrimidin-4-yl)-5,6,7,8-tetrahydro-4H-thieno[3,2-c]azepin-4-one]
